# In US10905665B2, “Chemical modulators of signaling pathways and therapeutic use” (Duke University, priority 2015, dated 2021):
# Tested on: Wnt/β-catenin transcription
# Experiment: Wnt-3A-stimulated TOPFlash reporter assay in HEK293 cells
# Type: cell-based
# Details: 0.5 μM
# Method: Stably transfected cells were seeded in 100 μl of cell growth medium/well in 96-well plates at 100% confluency. Fifty microliters of Wnt-3A conditioned medium containing the chemical compounds to be tested or DMSO was added to each well. After an 8 hour treatment, the cells were washed once with PBS and lysed with 55 μl of Passive Lysis Buffer supplied in the Dual-Luciferase Reporter Assay kit (Promega, Madison, Wis.). Twenty-five microliters of cell lysate was used for measuring luciferase activity in a 96-well plate reader (FluoStar Optima, BMG Labtech, Chicago, Ill.). Data were fit using GraphPad Prism (mean±SEM, n>=2).
row,SMILES,"Inhibition Wnt/β-catenin transcription TopFlash, % inhibition @ 0.5 μM [% inhibition]"
1,"CC(C)C(=O)Oc1ccc(Cl)cc1C(=O)Nc1ccc([N+](=O)[O-])cc1Cl [Compound 64, 4-chloro-2-((2-chloro-4-nitrophenyl)carbamoyl)phenyl isobutyrate]",70
2,"CC(C)(C)OC(=O)CCC(=O)Oc1ccc(Cl)cc1C(=O)Nc1ccc([N+](=O)[O-])cc1Cl [Compound 65, tert-butyl (4-chloro-2-((2-chloro-4-nitrophenyl)carbamoyl)phenyl) succinate]",60
3,"CCCC(CCC)C(=O)Oc1ccc(Cl)cc1C(=O)Nc1ccc([N+](=O)[O-])cc1Cl [Compound 66, 4-chloro-2-((2-chloro-4-nitrophenyl)carbamoyl)phenyl 2-propylpentanoate]",30
4,"O=C(CCCCCN1C(=O)C=CC1=O)Oc1ccc(Cl)cc1C(=O)Nc1ccc([N+](=O)[O-])cc1Cl [Compound 67, 4-chloro-2-((2-chloro-4-nitrophenyl)carbamoyl)phenyl 6-(2,5-dioxo-2,5-dihydro-1H-pyrrol-1-yl)hexanoate]",75

# Same assay, conditions: 1 μM
row,SMILES,"Inhibition Wnt/β-catenin transcription TopFlash, % inhibition @ 1 μM [% inhibition]"
1,"Cc1ccc(S(=O)(=O)Nc2ccccc2C(=O)Nc2ccc([N+](=O)[O-])cc2)cc1 [C, 2-((4-methylphenyl)sulfonamido)-N-(4-nitrophenyl)benzamide, reference compound]",47
2,"O=C(Nc1ccc(C(F)(F)F)cc1Br)c1cc(Cl)ccc1O [Compound 28, N-(2-bromo-4-(trifluoromethyl)phenyl)-5-chloro-2-hydroxybenzamide]",82
3,"O=C(Nc1ccc([N+](=O)[O-])cc1Cl)c1cc(-c2ccccc2)ccc1O [Compound 41, N-(2-chloro-4-nitrophenyl)-4-hydroxy-[1,1′-biphenyl]-3-carboxamide]",90
4,"COc1cc(O)c(C(=O)Nc2ccc([N+](=O)[O-])cc2Cl)cc1Cl [Compound 54, 5-chloro-N-(2-chloro-4-nitrophenyl)-2-hydroxy-4-methoxybenzamide]",70

# Same assay, conditions: 3 μM
row,SMILES,"Inhibition Wnt/β-catenin transcription TopFlash, % inhibition @ 3 μM [% inhibition]"
1,"Cc1cc([N+](=O)[O-])ccc1NC(=O)c1cc(Cl)ccc1O [Compound 26, 5-chloro-2-hydroxy-N-(2-methyl-4-nitrophenyl)benzamide]",80

# Same assay, conditions: 5 μM
row,SMILES,"Inhibition Wnt/β-catenin transcription TopFlash, % inhibition @ 5 μM [% inhibition]"
1,"O=C(Nc1ccc(C(F)(F)F)cc1Cl)c1c(O)ccc2ccccc12 [Compound 43, N-(2-chloro-4-(trifluoromethyl)phenyl)-2-hydroxy-1-naphthamide]",50
2,"O=C(Nc1ccc(C(F)(F)F)cc1Cl)c1cc2ccccc2cc1O [Compound 44, N-(2-chloro-4-(trifluoromethyl)phenyl)-3-hydroxy-2-naphthamide]",80
3,"O=C(Nc1ccc(C(F)(F)F)cc1Cl)c1ccc2ccccc2c1O [Compound 45, N-(2-chloro-4-(trifluoromethyl)phenyl)-1-hydroxy-2-naphthamide]",60

# Same assay, conditions: Homo sapiens, HEK293, 8 h
SMILES,inhibition at 2 µM [%],inhibition at 10 µM [%]
"O=C(Nc1ccc(OCc2ccccc2)c(Cl)c1)c1cc(Cl)ccc1O [Compound 27, N-(4-(benzyloxy)-3-chlorophenyl)-5-chloro-2-hydroxybenzamide]",75,
"C=CCOc1cc([N+](=O)[O-])ccc1NC(=O)c1cc(Cl)ccc1O [Compound 30, N-(2-(allyloxy)-4-nitrophenyl)-5-chloro-2-hydroxybenzamide]",,98
"O=CCOc1cc([N+](=O)[O-])ccc1NC(=O)c1cc(Cl)ccc1O [Compound 31, 5-chloro-2-hydroxy-N-(4-nitro-2-(2-oxoethoxy)phenyl)benzamide]",55,
"O=C(Nc1ccc([N+](=O)[O-])c(F)c1)c1cc(Cl)ccc1O [Compound 32, 5-chloro-N-(3-fluoro-4-nitrophenyl)-2-hydroxybenzamide]",,90
"C#CCOc1cc([N+](=O)[O-])ccc1NC(=O)c1cc(Cl)ccc1O [Compound 33, 5-chloro-2-hydroxy-N-(4-nitro-2-(prop-2-yn-1-yloxy)phenyl)benzamide]",45,
"O=C(Nc1ccc([N+](=O)[O-])c(N2CCOCC2)c1)c1cc(Cl)ccc1O [Compound 34, 5-chloro-2-hydroxy-N-(3-morpholino-4-nitrophenyl)benzamide]",,40
"COc1cc(NC(=O)c2cc(Cl)ccc2O)ccc1[N+](=O)[O-] [Compound 35, 5-chloro-2-hydroxy-N-(3-methoxy-4-nitrophenyl)benzamide]",,40
"O=C(Nc1ccc([N+](=O)[O-])c(Cl)c1)c1cc(Cl)ccc1O [Compound 36, 5-chloro-N-(3-chloro-4-nitrophenyl)-2-hydroxybenzamide]",90,
"C#CCOc1cc(N=[N+]=[N-])ccc1NC(=O)c1cc(Cl)ccc1O [Compound 37, N-(4-azido-2-(prop-2-yn-1-yloxy)phenyl)-5-chloro-2-hydroxybenzamide]",40,
"O=C(Nc1ccc(C(F)(F)F)c(Cl)c1)c1cc(Cl)ccc1O [Compound 38, 5-chloro-N-(3-chloro-4-(trifluoromethyl)phenyl)-2-hydroxybenzamide]",90,
"C#CCCCCOc1cc([N+](=O)[O-])ccc1NC(=O)c1cc(Cl)ccc1O [Compound 39, 5-chloro-N-(2-(hex-5-yn-1-yloxy)-4-nitrophenyl)-2-hydroxybenzamide]",80,
"O=C(Nc1ccc([N+](=O)[O-])cc1Cl)c1cc(-c2ccc(F)cc2F)ccc1O [Compound 42, N-(2-chloro-4-nitrophenyl)-2′,4′-difluoro-4-hydroxy-[1,1′-biphenyl]-3-carboxamide]",90,
"Cc1ccc(S(=O)(=O)Nc2ccc(Br)cc2C(=O)Nc2ccc(C(F)(F)F)cc2)cc1 [Compound 48, 5-bromo-2-((4-methylphenyl)sulfonamido)-N-(4-(trifluoromethyl)phenyl)benzamide]",,93
"CS(=O)(=O)Nc1ccc(Cl)cc1C(=O)Nc1ccc([N+](=O)[O-])cc1Cl [Compound 51, 5-chloro-N-(2-chloro-4-nitrophenyl)-2-(methylsulfonamido)benzamide]",,70
"COc1ccc(C(=O)Nc2ccc([N+](=O)[O-])cc2Cl)c(O)c1 [Compound 53, N-(2-chloro-4-nitrophenyl)-2-hydroxy-4-methoxybenzamide]",70,
"COc1cc(O)c(C(=O)Nc2ccc(F)cc2Cl)cc1Cl [Compound 55, 5-chloro-N-(2-chloro-4-fluorophenyl)-2-hydroxy-4-methoxybenzamide]",,70
"C=CCOc1cc([N+](=O)[O-])ccc1NC(=O)c1cc(Cl)ccc1OC(C)=O [Compound 60, 2-((2-(allyloxy)-4-nitrophenyl)carbamoyl)-4-chlorophenyl acetate]",80,
"CCCCCCCCCCCCCCCCCC(=O)Oc1ccc(Cl)cc1C(=O)Nc1ccc([N+](=O)[O-])cc1Cl [Compound 62, 4-chloro-2-((2-chloro-4-nitrophenyl)carbamoyl)phenyl stearate]",,70
"CCCCCCCC/C=C\CCCCCCCC(=O)Oc1ccc(Cl)cc1C(=O)Nc1ccc([N+](=O)[O-])cc1Cl [Compound 68, 4-chloro-2-((2-chloro-4-nitrophenyl)carbamoyl)phenyl oleate]",60,

# Same assay, conditions: Homo sapiens, HEK293, 8 h, Wnt-3A conditioned medium, 8 hour treatment; read-out: Inhibition Wnt/β-catenin transcription TopFlash IC50
row,IC50 [µM],SMILES
1,> 12,"O=C(Nc1c(F)cccc1F)c1cc(Cl)ccc1O [Compound 21, 5-chloro-N-(2,6-difluorophenyl)-2-hydroxybenzamide]"
2,> 12,"O=C(CCCCCNC(=O)CCCCC1SCC2NC(=O)NC21)NCCCCCC(=O)NCCOCCOCCOc1cc([N+](=O)[O-])ccc1NC(=O)c1cc(Cl)ccc1O (stereo not shown) [Compound 29, 5-chloro-2-hydroxy-N-(4-nitro-2-((10,17,24-trioxo-28-(2-oxohexahydro-1H-thieno[3,4-d]imidazol-4-yl)-3,6-dioxa-9,16,23-triazaoctacosyl)oxy)phenyl)benzamide]"
3,33,"O=C(Nc1ccccc1)c1ccc(NC(=O)c2cc(Cl)ccc2O)cc1 [Compound 40, 5-chloro-2-hydroxy-N-(4-(phenylcarbamoyl)phenyl)benzamide]"
4,0.5,"CCCCCCC(=O)Oc1ccc(Cl)cc1C(=O)Nc1ccc([N+](=O)[O-])cc1Cl [Compound 63, 4-chloro-2-((2-chloro-4-nitrophenyl)carbamoyl)phenyl heptanoate]"

# Same assay, conditions: Wnt-3A conditioned medium, 8 hour treatment; read-out: Inhibition Wnt/β-catenin transcription TopFlash IC50
row,IC50 [µM],SMILES
1,> 12,"O=C(Nc1ccc([N+](=O)[O-])cc1)c1cc(Cl)ccc1O [B, 5-chloro-2-hydroxy-N-(4-nitrophenyl)benzamide, reference compound]"

# Same assay, conditions: concentration not given
row,SMILES,"Inhibition Wnt/β-catenin transcription TopFlash, result in words"
1,"COc1cc(O)c(C(=O)Nc2ccc(OCc3ccccc3)c(Cl)c2)cc1OC [Compound 47, N-(4-(benzyloxy)-3-chlorophenyl)-2-hydroxy-4,5-dimethoxybenzamide]",stimulates

# Same assay, conditions: up to 10 μM
row,SMILES,"Inhibition Wnt/β-catenin transcription TopFlash, result in words"
1,"COc1cc(O)c(C(=O)Nc2cccc(Cl)c2)cc1Cl [Compound 56, 5-chloro-N-(3-chlorophenyl)-2-hydroxy-4-methoxybenzamide]",No inhibition

# Same assay, conditions: up to 12 μM
row,SMILES,"Inhibition Wnt/β-catenin transcription TopFlash, result in words"
1,"COc1cc(O)c(C(=O)Nc2ccc([N+](=O)[O-])cc2Cl)cc1OC [Compound 46, N-(2-chloro-4-nitrophenyl)-2-hydroxy-4,5-dimethoxybenzamide]",No inhibit. up
2,"O=C(Nc1ccc(C(F)(F)F)cc1)c1cnc2ccccc2c1O [Compound 49, 4-hydroxy-N-(4-(trifluoromethyl)phenyl)quinoline-3-carboxamide]",Stimulates up
